Test results as given in ChEMBL document CHEMBL3882730, “Organic Compounds as Smo Inhibitors” (2010).
≈ marks a conversion by molar mass, not a printed value.

Test: Equilibrium solubility of the compound at pH 6.8
Type: physicochemical
Conditions: buffer

Row | solubility thermodynamic [µM] | SMILES
1 | < 5 | CC(C)(O)c1cnc(N2CCN(c3nnc(Cc4ccccc4)c4c3CCC4)CC2)cn1
2 | 5 to 20 (≈ 2.22 to 8.89 µg/mL) | C[C@@H]1CN(c2nnc(Cc3ccccc3)c3c2CCC3)CCN1c1cnc(C(C)(C)O)cn1
